Measurements from patent US12551537B2, “Methods and compositions for the treatment and prevention of type 1 diabetes” (Dr. Mary Morris & Associates, LLC, priority 2019, dated 2026).

Key:
[1] = test system: non-obese diabetic (NOD) mice; experiment: Onset of hyperglycemia / Type 1 diabetes in NOD mice with sublingual treatment; type: in vivo, mouse; conditions: for Median Survival (time to Type 1 diabetes onset): female NOD mice, sublingual 87 μg once per day, diabetic = three consecutive blood glucose readings above 300 mg/dL, control 21 weeks; for Gehan-Breslow-Wilcoxon test: Are the survival curves significantly different? / Log-rank (Mantel-Cox) test: Are the survival curves significantly different?: vs control
Description: Sublingual formulation. A commercial high dose Humulin® solution (Humulin® R U-500) containing 500 units of insulin per mL is mixed with an additional equal volume (1:1 (vol:vol)) 100% glycerin. Each dose contains 10 μL of the Humulin®-glycerin solution, which contains 2.5 units (approximately 87 micrograms) of insulin in a solution having a final concentration of 52 vol. % glycerin.
NOD mice. Non-obese diabetic (NOD) mice, as described by Makino (Adv. Immunol. 51:285-322 (1992)), are used in the studies described herein. NOD mice provide an animal model for the spontaneous development of Type 1 diabetes. NOD mice develop insulitis as a result of leukocyte infiltration into the pancreatic islet, which in turn leads to the destruction of pancreatic islets and a Type 1 diabetic phenotype.
Five-week old female NOD mice were randomly assigned to three groups: (1) control group (1:1 glycerin/phosphate buffered saline (PBS)); (2) insulin-related peptide treatment (Humulin®) started at six weeks of age; or (3) insulin-related peptide treatment (Humulin®) started at ten weeks of age. Mice in the treatment groups (2) and (3) were sublingually administered 87 μg of Humulin® (10 μL of solution) once per day up to 30 weeks of age. Blood glucose measurements were taken once per week up to 20 weeks of age, and then twice per week thereafter. Mice were classified as diabetic after three consecutive blood glucose readings above 300 mg/dL (hyperglycemic).

[2] = test system: islet cell autoantibody levels; experiment: Autoantibody titer in NOD mice (ELISA); type: in vivo, mouse; conditions: sublingual 87 μg once per day up to 30 weeks of age, compared to untreated controls
Description: Autoantibody titer assay. Commercially available ELISA assays are employed for detecting the presence of anti-insulin antibodies in serum samples collected from subjects.
(§1) Five-week old female NOD mice are randomly assigned to three groups as described in Example 1: (1) control group (oil only); (2) insulin-related peptide treatment (Humulin®) started at six weeks of age; or (3) insulin-related peptide treatment (Humulin®) started at ten weeks of age. Mice in the treatment groups (2) and (3) are sublingually administered 87 μg of humulin once per day up to 30 weeks of age. The subjects are assessed for baseline levels of autoantibodies at week 6. Thereafter, autoantibody titer measurements are taken once every other week beginning at week 15 up to 30 weeks of age.

[3] = test system: serum C-peptide; experiment: Serum C-peptide levels in NOD mice (mouse C-peptide ELISA); type: in vivo; conditions: sublingual 87 μg once per day up to 30 weeks of age, compared to untreated control NOD mice
Description: Serum C-peptide assay. The mouse C-peptide ELISA (ALPCO), which quantifies C-peptide protein products of mouse I and mouse II proinsulin genes, is used. Briefly, serum is collected by inserting a needle into the submandibular vein and collecting ˜0.2 mL of blood. The blood is centrifuged for 30 minutes at 17,000 rpm in a refrigerated centrifuge, and serum is collected and stored −80° C.
as §1, with “Humulin®” for “humulin”, “Baseline C-peptide measurements” for “The subjects”, “taken from serum drawn” for “assessed for baseline levels of autoantibodies”, “C-peptide” for “autoantibody titer”, “from serum drawn 1 time per 2 weeks” for “once every other week”, “20” for “15”

[4] = FIG. 1A, treatment group 2, sublingual, started at six weeks of age, compared to control group
[5] = FIG. 1A, treatment started at 6 weeks of age
[6] = FIG. 1B, treatment started at 10 weeks of age

Substance: Humulin: commercial recombinant human insulin solution (Humulin R U-500, 500 units/mL) mixed 1:1 with 100% glycerin for sublingual dosing
- Median Survival (time to Type 1 diabetes onset) ([1]; FIG. 1A, started at 6 weeks of age up to 30 weeks): 27 weeks
- incidence (% T1D Onset) of Type 1 diabetes [1, 4]: significantly reduced
- onset time (weeks) of Type 1 diabetes [1, 4]: significantly reduced
- Ratio of median survival (control vs Humulin) [1, 5]: 0.778
- Reciprocal of ratio of median survival [1, 5]: 1.29
- Gehan-Breslow-Wilcoxon test: Are the survival curves significantly different? [1, 5]: Yes
- Log-rank (Mantel-Cox) test: Are the survival curves significantly different? [1, 5]: Yes
- Median Survival (time to Type 1 diabetes onset) ([1]; FIG. 1B, started at 10 weeks of age up to 30 weeks): 24 weeks
- Ratio of median survival (control vs Humulin) [1, 6]: 0.8750
- Reciprocal of ratio of median survival [1, 6]: 1.14
- Gehan-Breslow-Wilcoxon test: Are the survival curves significantly different? [1, 6]: No
- Log-rank (Mantel-Cox) test: Are the survival curves significantly different? [1, 6]: No
- antigenic response (e.g., islet cell autoantibody levels) [2]: attenuated antigenic response
- serum C-peptide levels [3]: maintenance or enhanced serum C-peptide levels
